Measured values as given in paper PMC12169847, “Targeted protein degradation by KLHDC2 ligands identified by high-throughput screening” (eLife, 2025).
Values joined by “and” are separate entries in the source; they are usually repeats but may differ in a detail not shown here. Equal values may be shown once.

How the values were obtained:
KLHDC2 [1] = target: KLHDC2; design: method as in Rusnac et al., 2018; conditions: ref Rusnac et al., 2018; read-out: dissociation constant, reported literature value; cited from earlier work
KLHDC2 [2] = target: T1, KLHDC2 (Homo sapiens, UniProt Q9Y2U9); experiment: Surface plasmon resonance direct binding to immobilized KLHDC2; conditions: read-out: KLHDC2 Kd (SPR)
T1 sequence (Q9Y2U9 1-362): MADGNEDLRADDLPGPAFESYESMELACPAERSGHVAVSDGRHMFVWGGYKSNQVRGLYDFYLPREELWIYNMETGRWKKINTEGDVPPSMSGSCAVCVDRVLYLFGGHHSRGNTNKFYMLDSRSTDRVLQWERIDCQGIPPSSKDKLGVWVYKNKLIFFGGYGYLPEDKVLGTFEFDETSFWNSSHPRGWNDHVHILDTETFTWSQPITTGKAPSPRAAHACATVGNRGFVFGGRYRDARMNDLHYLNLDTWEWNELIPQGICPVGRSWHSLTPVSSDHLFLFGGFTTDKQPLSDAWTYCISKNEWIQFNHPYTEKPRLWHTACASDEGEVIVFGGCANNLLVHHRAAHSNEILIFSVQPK

KEAP1 Kelch domain = target: T2, KEAP1 Kelch domain (Homo sapiens, UniProt Q14145); experiment: Fluorescence polarization counter-screen, KEAP1 with TAMRA-NRF2 peptide; assay type: binding; conditions: for Fluorescence polarization signal: KEAP1, replicate wells; for inhibitory effect in the KEAP1 counter-screening assay: concentrations less than 20 µM; for EC50: in figure
T2 construct: HIS6 (N); made in house; host or cells: Escherichia coli BL21(DE3)

GST-tagged KLHDC2 = target: T3, GST-tagged KLHDC2 (Homo sapiens, UniProt Q9Y2U9); experiment: Fluorescence polarization competition assay, KLHDC2 with TAMRA-SelK peptide (384-well); conditions: for Fluorescence polarization signal: KLHDC2, replicate wells
T3 sequence (Q9Y2U9 1-362): T1 sequence (Q9Y2U9 1-362)

SelK (Homo sapiens) = SelK (Homo sapiens) (UniProt Q9Y6D0); conditions: cited from earlier work
SelK (Homo sapiens), sequence (Q9Y6D0 2-94): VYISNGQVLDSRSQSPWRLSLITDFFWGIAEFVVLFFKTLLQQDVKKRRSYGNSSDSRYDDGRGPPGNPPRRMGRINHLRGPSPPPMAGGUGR

T2 sequence (Q14145 321-609 limits assumed): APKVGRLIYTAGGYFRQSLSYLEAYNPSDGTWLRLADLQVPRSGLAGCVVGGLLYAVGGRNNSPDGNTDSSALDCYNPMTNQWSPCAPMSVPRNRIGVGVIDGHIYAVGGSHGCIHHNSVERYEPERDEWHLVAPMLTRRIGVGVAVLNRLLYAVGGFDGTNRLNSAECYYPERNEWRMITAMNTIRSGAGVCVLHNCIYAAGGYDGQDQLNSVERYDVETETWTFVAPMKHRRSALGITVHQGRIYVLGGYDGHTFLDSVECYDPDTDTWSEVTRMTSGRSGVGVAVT
KLHDC2 (from UniProt Q9Y2U9), sequence (Q9Y2U9 whole entry): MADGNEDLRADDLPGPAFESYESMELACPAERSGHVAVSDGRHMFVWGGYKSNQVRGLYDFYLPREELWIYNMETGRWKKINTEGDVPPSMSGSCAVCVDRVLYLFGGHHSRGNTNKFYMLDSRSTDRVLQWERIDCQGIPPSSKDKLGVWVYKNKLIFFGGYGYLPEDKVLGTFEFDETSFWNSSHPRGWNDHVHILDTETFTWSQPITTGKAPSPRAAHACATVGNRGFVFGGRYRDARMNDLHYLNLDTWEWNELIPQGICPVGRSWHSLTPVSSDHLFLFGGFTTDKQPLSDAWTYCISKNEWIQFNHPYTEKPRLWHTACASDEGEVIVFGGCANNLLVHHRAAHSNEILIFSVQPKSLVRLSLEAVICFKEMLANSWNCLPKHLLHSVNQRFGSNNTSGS

Row | Molecule | Kd (KLHDC2 [2]) | Fluorescence polarization signal (KEAP1 Kelch domain; 0.169351 nM) | Fluorescence polarization signal (KEAP1 Kelch domain; 0.508053 nM) | Fluorescence polarization signal (KEAP1 Kelch domain; 1.52416 nM) | Fluorescence polarization signal (KEAP1 Kelch domain; 4.57247 nM) | Fluorescence polarization signal (KEAP1 Kelch domain; 13.7174 nM) | Fluorescence polarization signal (KEAP1 Kelch domain; 41.1523 nM) | Fluorescence polarization signal (KEAP1 Kelch domain; 123.457 nM) | Fluorescence polarization signal (KEAP1 Kelch domain; 370.37 nM) | Fluorescence polarization signal (KEAP1 Kelch domain; 1111.11 nM) | Fluorescence polarization signal (KEAP1 Kelch domain; 3333.33 nM) | Fluorescence polarization signal (KEAP1 Kelch domain; 10000 nM) | inhibitory effect in the KEAP1 counter-screening assay (KEAP1 Kelch domain) | EC50 (KEAP1 Kelch domain) | EC50 (GST-tagged KLHDC2) | IC50 (GST-tagged KLHDC2) | Fluorescence polarization signal (GST-tagged KLHDC2; 0.169351 nM) | Fluorescence polarization signal (GST-tagged KLHDC2; 0.508053 nM) | Fluorescence polarization signal (GST-tagged KLHDC2; 1.52416 nM) | Fluorescence polarization signal (GST-tagged KLHDC2; 4.57247 nM) | other results
1 | SelK: client protein of KLHDC2 with C-terminal diglycine degron | – | – | – | – | – | – | – | – | – | – | – | – | – | – | – | – | – | – | – | – | Kd (KLHDC2 [1]): < 10 nM
2 | Cc1ccc(C)c(C2Nc3c(C(=O)O)cc(Cl)cc3C3C4CCC(C4)C23)c1 (centres unmarked) [compound 2] | 440 nM and 443 nM | 14.7 and 20.2 and 14.4 | 10.4 and 15.1 and 11.1 | 17 and 19.8 and 20.3 | 20.3 and 18.2 and 19.6 | 18.8 and 19.1 and 18 | 21.6 and 19.5 and 32 | 24.5 and 18.9 and 12.1 | 22.6 and 16.2 and 24.9 | 20.2 and 15.6 and 21 | 14.8 and 21.8 and 27 | 17.3 and 22.1 and 15.2 | did not have an inhibitory effect | > 20000 nM | 1270 nM | 1300 nM | -6.704 and 3.427 and -1.254 | -10.2042 and 5.927 and -5.854 | -0.3042 and -6.173 and -5.554 | 3.896 and 7.124 and -7.354 | Fluorescence polarization signal (GST-tagged KLHDC2; 13.7174 nM): 2.496 and 7.927 and -2.554; Fluorescence polarization signal (GST-tagged KLHDC2; 41.1523 nM): 1.996 and 10.1266 and 8.192; Fluorescence polarization signal (GST-tagged KLHDC2; 123.457 nM): -3.304 and -7.673 and -6.554; Fluorescence polarization signal (GST-tagged KLHDC2; 370.37 nM): -2.804 and -8.673 and -1.254; Fluorescence polarization signal (GST-tagged KLHDC2; 1111.11 nM): -10.1042 and -12.1734 and -2.854; Fluorescence polarization signal (GST-tagged KLHDC2; 3333.33 nM): -28.2042 and -24.2734 and -28.2543; Fluorescence polarization signal (GST-tagged KLHDC2; 10000 nM): -26.0042 and -23.7734 and -24.4543
3 | KLHDC2 (from UniProt Q9Y2U9) | – | – | – | – | – | – | – | – | – | – | – | – | – | – | – | – | – | – | – | – | Kd (SelK (Homo sapiens)): 3.4 nM
4 | COc1ccc(C2CC(c3cccc(F)c3)Nc3c(C(=O)O)cc(Br)cc32)cc1OC (centres unmarked) [compound 1] | 810 nM and 809 nM | 15.2 and 20.2 and 9.533 | 11.1 and 15.1 and 18.7 | 20.7 and 19.8 (2×) | 27.1 and 18.2 and 28.2 | 24.4 and 19.1 and 17 | 12.2 and 19.5 and 19.8 | 21.2 and 18.9 and 16.3 | 24.1 and 16.2 and 17.6 | 21.2 and 15.6 and 17.3 | 8.697 and 21.8 and 19.7 | 14.9 and 22.1 and 19.3 | did not have an inhibitory effect | > 20000 nM | 2500 nM | 2500 nM | 0.6958 and 5.527 and -6.154 | 0.1958 and 5.927 and -4.854 | -13.1042 and -0.4734 and -3.754 | 1.996 and -1.273 and -4.954 | Fluorescence polarization signal (GST-tagged KLHDC2; 13.7174 nM): 2.396 and 3.527 and -0.6542; Fluorescence polarization signal (GST-tagged KLHDC2; 41.1523 nM): 2.696 and 0.3828 and -2.854; Fluorescence polarization signal (GST-tagged KLHDC2; 123.457 nM): -3.504 and -5.782 and -9.454; Fluorescence polarization signal (GST-tagged KLHDC2; 370.37 nM): -4.604 and 3.827 and -2.854; Fluorescence polarization signal (GST-tagged KLHDC2; 1111.11 nM): -13.7042 and -3.373 and -3.854; Fluorescence polarization signal (GST-tagged KLHDC2; 3333.33 nM): -18.1042 and -20.4734 and -17.5543; Fluorescence polarization signal (GST-tagged KLHDC2; 10000 nM): -16.9042 and -31.6734 and -31.9543
5 | O=C(O)c1cc(Cl)cc2c1NC(c1cccc(C(F)(F)F)c1)C1C3CCC(C3)C21 (centres unmarked) [compound 5] | 380 nM and 379 nM | 20 and 24 and 25 | 22 and 20 and 32 | 29 and 21 and 41 | 16 and 24 and 43 | 24 (2×) and 27 | 20 and 18 and 26 | 20 and 35 and 31 | 31 and 22 and 25 | 25 and 23 and 18 | 15 and 26 and 34 | 31 and 14 and 27 | no inhibitory effect | > 20000 nM | 760 nM | 760 nM | -4 and 1 and 6 | -11.1 and -2.3 and 1 | -1.4 and 2 and 0 | 1 (2×) and -8.1 | Fluorescence polarization signal (GST-tagged KLHDC2; 13.7174 nM): 1 and -4 and 0; Fluorescence polarization signal (GST-tagged KLHDC2; 41.1523 nM): 1 and -1.4 and -5.1; Fluorescence polarization signal (GST-tagged KLHDC2; 123.457 nM): 0 and -2.6 and -8.8; Fluorescence polarization signal (GST-tagged KLHDC2; 370.37 nM): -30.6 and -31 and -24.7; Fluorescence polarization signal (GST-tagged KLHDC2; 1111.11 nM): -67.8 and -66.2 and -52.8; Fluorescence polarization signal (GST-tagged KLHDC2; 3333.33 nM): -93.4 and -88.4 and -82.2; Fluorescence polarization signal (GST-tagged KLHDC2; 10000 nM): -84.4 and -101.233 and -107.845
